Activity calls are given as the source filed them. How the calls were made is not given here.
Biological target: C-X-C chemokine receptor type 6 (Homo sapiens) (UniProt O00574)
Experiment: CXCR6 receptor antagonists, dose response, cell-based, beta-arrestin, DiscoveRx, APJ panel, uHTS hits (AID 624129)
Settings: CXCR6 beta-arrestin (DiscoveRx) antagonist cell assay; for outcome: CXCR6, dose range 1; for inhibition: CXCR6, run 2, dose range 1, at 79 µM (top of the series)
[1] = CXCR6, dose range 1, mean IC50 across replicates

Chain of C-X-C chemokine receptor type 6 (Homo sapiens) (O00574 whole entry, looked up): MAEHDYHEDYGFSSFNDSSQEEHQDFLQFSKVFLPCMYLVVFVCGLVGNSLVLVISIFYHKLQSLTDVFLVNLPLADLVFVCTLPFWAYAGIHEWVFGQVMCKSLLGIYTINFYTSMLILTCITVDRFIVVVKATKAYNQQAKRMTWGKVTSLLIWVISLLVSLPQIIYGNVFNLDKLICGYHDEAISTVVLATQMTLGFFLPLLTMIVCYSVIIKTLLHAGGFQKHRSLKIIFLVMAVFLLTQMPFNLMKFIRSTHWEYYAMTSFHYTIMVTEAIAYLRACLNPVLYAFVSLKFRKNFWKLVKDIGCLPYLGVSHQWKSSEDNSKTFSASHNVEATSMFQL

| Structure (SMILES) | outcome | IC50 [1] [µM] | IC50 (CXCR6, run 1, dose range 2) [µM] | inhibition [%] | IC50 (CXCR6, run 2, dose range 2) [µM] |
| --- | --- | --- | --- | --- | --- |
| O=C(Nc1ccccc1)c1nnsc1S(=O)c1ccc(Cl)cc1 (stereo not given) | inactive | 11.5 | 11.9 | 111 | 11.2 |
| COC(=O)/C=C\C(=O)Nc1cccc([N+](=O)[O-])c1 | inactive | 16.6 | 18 | 111 | 15.2 |
| Cc1c(N=Nc2c(O)[nH]c(=S)[nH]c2=O)c(=O)n(-c2ccccc2)n1C | inactive | 22.5 | 16.4 | 107 | 28.6 |
| COc1cc(/C=C(\C#N)c2nc(-c3cc4ccccc4oc3=O)cs2)ccc1O | inactive | 30.7 | 23.3 | 84.1 | 38.2 |
| Cc1ccc(S(=O)(=O)c2ccc([N+](=O)[O-])cn2)cc1 | inactive | 11.7 | 11.5 | 109 | 11.9 |
| COc1ccc(-c2nn(C)c(=O)c3ccccc23)cc1NC(=O)Cn1nc(C)c2ccccc2c1=O | inactive | 34.5 | 21.8 | 72.1 | 47.2 |
| Cc1nnc(Sc2cc(NCCO)c([N+](=O)[O-])c3nonc23)s1 | inactive | 12.1 | 9.44 | 114 | 14.7 |
| O=C1c2cccc3c([N+](=O)[O-])ccc(c23)C(=O)N1c1ccc(Cl)cn1 | inactive | 19.6 | 17.7 | 92.1 | 21.6 |
| O=[N+]([O-])c1ccc(N/N=C/c2sc(N3CCOCC3)nc2-c2ccccc2)c(S(=O)(=O)Nc2ccccc2Cl)c1 | inactive | 27.6 | 27.6 | 95.7 | > 79 |
| COC(=O)c1ccc(/C=C(\C#N)C(=O)NC(C)c2ccccc2)cc1 (stereo not given) | inactive | 14.1 | 13.6 | 112 | 14.6 |
| CN(C)/C=C/c1oc2ccc(O)cc2c1[N+](=O)[O-] | inactive | 17.5 | 18.5 | 93.1 | 16.4 |
| CN(CC(=O)Nc1cc(S(=O)(=O)N2CCCC2)ccc1Cl)Cc1cccs1 | inactive | 11.5 | 11.4 | 78.8 | 11.6 |
| C[n+]1ccc(/C=N/Nc2nc(Cl)c(C#N)c(Cl)c2Cl)cc1 | inactive | 44.8 | 23.6 | 90.5 | 66 |
| Cc1ccccc1CS(=O)(=O)c1nnc([C@H](Cc2ccccc2)NC(=O)OC(C)(C)C)o1 | inactive | 15.9 | 16 | 110 | 15.7 |
| CCOc1cc(/C=C2\C(=O)N(c3cccc(C(F)(F)F)c3)C(=O)c3ccccc32)ccc1O | inactive | 49.2 | 49.2 | 81 | > 79 |
| C=CC[n+]1c(-c2ccc(Cl)cc2Cl)csc1Nc1c(C)n(C)n(-c2ccccc2)c1=O | inactive | 40 | 29.2 | 101 | 50.8 |
| CCCC/C=C1/CCC(CN(C)C)C1=O (stereo not given) | inactive | 22.6 | 22.3 | 110 | 22.8 |
| C=CCn1c(=O)c2c(nc3n2CC(C)CN3c2cccc(OC)c2)n(C)c1=O (stereo not given) | inactive | 19.5 | 18.3 | 66.1 | 20.7 |
| Cc1cc2nc(N3C(=O)CNC3=S)sc2cc1C | inactive | 11.6 | 8.25 | 89.4 | 14.9 |
| CCOC(=O)c1ccc(NC(=O)c2nc(S(=O)(=O)Cc3ccccc3)ncc2Cl)cc1 | inactive | 12.9 | 12.3 | 111 | 13.5 |
| CC(=O)NS(=O)(=O)c1ccc(Nc2ccc([N+](=O)[O-])c3nonc23)cc1 | inactive | 46.6 | 35.6 | 85.9 | 57.6 |
| O=C(COc1ccc(Br)cc1Cl)NC(=S)N1CCc2ccccc21 | inactive | 17.3 | 14.8 | 94.9 | 19.7 |
| C=CC[C@H](CC(=O)N(CCO)Cc1ccccc1)C(=O)NC[C@H](OC(=O)[C@@H](CC=C)CC(=O)OC(C)(C)C)c1ccccc1 | inactive | 31 | 33.1 | 76.8 | 29 |
| COC(=O)c1ccc(NC(=O)c2nc(S(=O)(=O)Cc3cccc(C)c3)ncc2Cl)cc1 | inactive | 16.3 | 15.4 | 107 | 17.2 |

| Structure (SMILES) | outcome | IC50 [1] [µM] | IC50 (CXCR6, run 1, dose range 2) [µM] | inhibition [%] | IC50 (CXCR6, run 2, dose range 2) [µM] |
| --- | --- | --- | --- | --- | --- |
| CCOc1cc(/C=C2\N=C(SCC)SC2=O)cc([N+](=O)[O-])c1OC(C)=O | inactive | 39.3 | 23.8 | 95.5 | 54.8 |
| CCOC(=O)CS(=O)(=O)c1nc(-c2ccccc2)cc(C(F)(F)F)n1 | inactive | 18.9 | 17.7 | 108 | 20.2 |
| COc1cc(C2C(C#N)=C(N)Oc3n[nH]c(-c4cccs4)c32)cc(OC)c1O (stereo not given) | inactive | 47.3 | 36.1 | 70.9 | 58.4 |
| N#CC(C#N)=C1C=CC=CN1/C(=C\c1ccco1)C(=O)c1ccc(-c2ccccc2)cc1 | inactive | 14.1 | 12.2 | 103 | 16 |
| Cc1ccc(O)c(C(=O)CC(=O)c2ccc(Cl)cc2)c1 | inactive | 13.7 | 10.8 | 91.8 | 16.5 |
| CNC(=O)c1nnsc1S(=O)c1ccc(Cl)cc1 (stereo not given) | inactive | 13 | 13.2 | 112 | 12.7 |
| CCn1c(=O)cc(NC2=NCC(C)CN2c2cccc(Cl)c2)n(C)c1=O (stereo not given) | inactive | 19.1 | 19.3 | 79 | 19 |
| CS(=O)(=O)c1ccc(C(=O)OCC(=O)N2CCN(CCC3CCCCC3)CC2)cc1[N+](=O)[O-] | inactive | 11.2 | 10.6 | 111 | 11.8 |
| CC(=O)Nc1nc2ccccc2n1CCOc1ccccc1Cl | inactive | 11.9 | 8.79 | 80.9 | 15 |
| O=C(NC(=S)N(CCc1ccccc1)CCc1ccccc1)c1ccco1 | inactive | 26 | 8.84 | 68.8 | 43.2 |
| CCC(=O)OCCNc1cc(SCCC(=O)OC)c2nonc2c1[N+](=O)[O-] | inactive | 22.5 | 21.5 | 108 | 23.5 |
| O=C(C=Cc1ccccn1)c1ccccc1O | inactive | 22.4 | 13.8 | 108 | 31 |
| COc1cc(/C=C/C(=O)c2ccc(C)c([N+](=O)[O-])c2)cc(OC)c1O | inactive | 19.4 | 16.4 | 75.1 | 22.5 |
| N#Cc1c([N+](=O)[O-])cc([N+](=O)[O-])cc1S(=O)(=O)Cc1ccccc1 | inactive | 11.8 | 11.1 | 114 | 12.6 |
| Cc1ccc(NS(=O)(=O)c2cc([N+](=O)[O-])ccc2NNC(=S)Nc2cc(C)ccc2C)c(C)c1 | inactive | 33 | 21.2 | 114 | 44.8 |
| CC1(C)CC[C@]2(C(=O)n3ccnc3)CC[C@]3(C)[C@H](C(=O)C=C4[C@@]5(C)C=C(C#N)C(=O)C(C)(C)[C@@H]5CC[C@]43C)[C@@H]2C1 | inactive | 16.4 | 14.4 | 105 | 18.4 |
| Cn1cnc([N+](=O)[O-])c1S(=O)(=O)c1cccc(Cl)c1 | inactive | 12.1 | 12.4 | 112 | 11.9 |
| Oc1ccc(Cl)c2cccnc12 | active | 4.82 | 4.82 | 17.7 | > 79 |
| O=C1C=CC(=O)N1c1ccc(N2CCCCC2)cc1 | inactive | 18.3 | 17.5 | 113 | 19.1 |
| COc1ccc(C(=O)NC(=S)Nc2ccc([N+](=O)[O-])cc2C)cc1OC | inactive | 21.7 | 18.3 | 100 | 25.1 |
| CC1=CC(C)(C)N2C(=O)C(=Nc3ccc(O)cc3)c3cccc1c32 | inactive | 57.9 | 77.4 | 84 | 38.4 |
| CC1=C(O)C(=O)C=C2C1=CC=C1C2(C)CCC2(C)C3CC(C)(C(=O)O)CCC3(C)CCC12C (stereo not given) | inactive | 19.3 | 16.7 | 113 | 21.9 |
| O=C(NCc1ccc2c(c1)OCO2)c1nc(S(=O)(=O)Cc2ccccc2F)ncc1Cl | inactive | 16.3 | 15.6 | 111 | 17 |

Reference: PubChem BioAssay AID624129 (Sanford-Burnham Center for Chemical Genomics, 2012)
